Results taken from patent publication US9693997B2, “Antiviral compounds” (priority 2013, dated 2017).
Counter-ions that a name gives are not always drawn.

What was measured:
[1] = tested on: pseudotyped VSV G particles (VSVpp) in Huh7-high CD81 cells; test: microbe, parasite or virus in culture; assay type: cell-based, vesicular stomatitis virus; conditions: Vesicular stomatitis virus, 72 h, read-out: VSVpp (EC50, μM)
[2] = tested on: Pseudotyped HCV GT1b particles (HCVpp), entry into Huh7-high CD81 cells; test: microbe, parasite or virus in culture; assay type: cell-based, HCV GT1b Con1 strain; conditions: Hepatitis C virus, GT1B, 72 h, read-out: HCVpp GT-1b (EC50, μM)

Row | Structure (SMILES) | EC50 [1] [µM] | EC50 [2] [µM]
1 | CC(C)(C)N(CC(F)(F)F)S(=O)(=O)c1ccc(-c2c(Cl)cc(Nc3n[nH]c(N)n3)cc2C(F)(F)F)cc1 [Compound 223, 4′-(5-Amino-1H-[1,2,4]triazol-3-ylamino)-6′-chloro-2′-trifluoromethyl-biphenyl-4-sulfonic acid tert-butyl-(2,2,2-trifluoro-ethyl)-amide] | 9.8 | 0.029
2 | CN(C)S(=O)(=O)c1cccc(-c2c(F)cc(Nc3nc(N)n[nH]3)cc2C(F)(F)F)c1 [Compound 84, 4′-(5-Amino-2H-[1,2,4]-triazol-3-ylamino)-6′-fluoro-2′-trifluoromethyl-biphenyl-3-sulfonic acid dimethylamide] | 16.8 | 0.43
3 | CN(C(=O)OC(C)(C)C)C(C)(C)COc1ccc(-c2c(Cl)cc(Nc3n[nH]c(N)n3)cc2C(F)(F)F)cc1 [Compound 128, {2-[4′-(5-Amino-1H-[1,2,4]triazol-3-ylamino)-6′-chloro-2′-trifluoromethyl-biphenyl-4-yloxy]-1,1-dimethyl-ethyl}-methyl-carbamic acid tert-butyl ester] | 9.26 | 0.011
4 | COc1ccccc1-c1c(Cl)cc(Nc2n[nH]c(N)n2)cc1Cl [Compound 120, N-3-(2,6-Dichloro-2′-methoxy-biphenyl-4-yl)-1H-[1,2,4]triazole-3,5-diamine] | 1.12 | 0.181
5 | CC(C)(C)OC(=O)N1CC(COc2ccc(-c3c(Cl)cc(Nc4n[nH]c(N)n4)cc3Cl)cc2)C1 [Compound 260, 3-[4′-(5-Amino-1H-[1,2,4]triazol-3-ylamino)-2′,6′-dichloro-biphenyl-4-yloxymethyl]-azetidine-1-carboxylic acid tert-butyl ester] | 17.5 | 0.022
6 | Nc1nc(Nc2cc(Cl)c(-c3cccc(C(F)(F)F)c3)c(Cl)c2)n[nH]1 [Compound 108, N-3-(2,6-Dichloro-3′-trifluoromethyl-biphenyl-4-yl)-1H-[1,2,4]triazole-3,5-diamine] | 29 | 0.014
7 | Nc1nc(Nc2cc(Cl)c(-c3ccc(S(=O)(=O)N4CCC(F)(F)CC4)cc3)c(C(F)(F)F)c2)n[nH]1 [Compound 183, N3-(2-chloro-4′-(4,4-difluoropiperidin-1-ylsulfonyl)-6-(trifluoromethyl)biphenyl-4-yl)-1H-1,2,4-triazole-3,5-diamine] | 8.19 | 0.048
8 | Nc1nc(Nc2cc(Cl)c(-c3ccc(S(N)(=O)=O)cc3)c(C(F)(F)F)c2)n[nH]1 [Compound 171, 4′-(5-amino-1H-1,2,4-triazol-3-ylamino)-2′-chloro-6′-(trifluoromethyl)biphenyl-4-sulfonamide] | 5.23 | 0.028
9 | Nc1nc(Nc2cc(Cl)c(-c3ccc(NC(=O)CN4CCOCC4)cc3)c(C(F)(F)F)c2)n[nH]1 [Compound 241, [4′-(5-amino-1H-[1,2,4]triazol-3-ylamino)-2′-chloro-6′-trifluoromethyl-biphenyl-4-yl]-2-morpholin-4-yl-acetamide] | > 10 | 0.123
10 | CC(C)(C)OC(=O)COc1ccc(-c2c(Cl)cc(Nc3n[nH]c(N)n3)cc2Cl)cc1 [Compound 276, [4′-(5-Amino-1H-[1,2,4]triazol-3-ylamino)-2′,6′-dichloro-biphenyl-4-yloxy]-acetic acid tert-butyl ester] | > 10 | 0.168
11 | CN(CCNS(=O)(=O)c1ccc(-c2c(Cl)cc(Nc3n[nH]c(N)n3)cc2C(F)(F)F)cc1)C(=O)OC(C)(C)C [Compound 209, tert-butyl 2-(4′-(5-amino-1H-1,2,4-triazol-3-ylamino)-2′-chloro-6′-(trifluoromethyl)biphenyl-4-ylsulfonamido)ethyl(methyl)carbamate] | 7.09 | 0.005
12 | CC(C)(C)NCc1ccc(-c2c(Cl)cc(Nc3n[nH]c(N)n3)cc2C(F)(F)F)cc1 [Compound 58, N*3*-[4′-(tert-Butylamino-methyl)-2-chloro-6-trifluoromethyl-biphenyl-4-yl]-1H-[1,2,4]triazole-3,5-diamine; hydrochloride] | 4.56 | 0.086
